{
  "source": "patent US10000765B2",
  "about": "“Gene encoding cytochrome P450, and use thereof” (NATIONAL INSTITUTE OF AGROBIOLOGICAL SCIENCES, priority 2011, dated 2018)",
  "key": {"[1]": {"test_system": "Arabidopsis thaliana K31-4-2 and K31-6-5", "assay": "Growth test in BS-containing medium, Arabidopsis transformed with Kasalath-derived CYP72A31", "type": "in vivo", "conditions": "day 10 from onset of cultivation, compared to NT", "description": "(§1) In this Example, Agrobacterium as prepared in Example 4 was used to introduce HptII::35Spro::Kasalath CYP72A31::Tnos vector plasmid (pCAMBIA1390-KasCYP72A31), HptII::35Spro::Kasalath CYP72A32::Tnos vector plasmid (pCAMBIA1390-KasCYP72A32), or HptII::35Spro::Kasalath CYP72A33::Tnos vector plasmid (pCAMBIA1390-KasCYP72A33) into Arabidopsis thaliana (ecotype: Col-0) by using a floral-dip method. The floral-dip method followed a standard method. […] K31-4-2 and K31-6-5 were selected as fixed lines derived from pCAMBIA1390-KasCYP72A31; K32-1-1, K32-3-1, and K32-5-1 were selected as fixed lines derived from pCAMBIA1390-KasCYP72A32; and K33-1-3 and K33-2-4 were selected as fixed lines derived from pCAMBIA1390-KasCYP72A33. Their seeds were seeded in a medium containing each concentration of BS, and cultivated for 10 days. FIGS. 16A and 16B illustrate the results.\nNext, 15 seeds for each of non-transformed Arabidopsis thaliana (NT, which is denoted by “Col-0” in FIGS. 17A-17C) and transformed plant bodies (K31-4-2 which is denoted by “K31oe-4-2” in FIGS. 17A-17C and K31-6-5 which is denoted by “K31oe-6-5” in FIGS. 17A-17C) were cultivated on a medium containing each concentration of BS. […]"}, "[2]": {"test_system": "Arabidopsis thaliana K32-1-1, K32-3-1 and K32-5-1", "assay": "Growth test in BS-containing medium, Arabidopsis transformed with Kasalath-derived CYP72A32", "type": "in vivo", "conditions": "day 10 from onset of cultivation, compared to NT", "description": "as §1\nNext, 15 seeds for each of non-transformed Arabidopsis thaliana (NT which is denoted by “Col-0” in FIGS. 18A-18C) and transformed plant bodies (K32-1-1 which is denoted by “K32oe-1-1” in FIGS. 18A-18C, K32-3-1 which is denoted by “K32oe-3-1” in FIGS. 18A-18C, and K32-5-1 which is denoted by “K32oe-5-” in FIGS. 18A-18C) were cultivated on a medium containing each concentration of BS. […]"}, "[3]": {"test_system": "Arabidopsis thaliana (K31-4-2) transformed with a Kasalath-derived CYP72A31 gene", "assay": "Drug sensitivity test on drug-containing MS medium, Arabidopsis thaliana transformed with Kasalath-derived CYP72A31 gene", "type": "in vivo", "conditions": "for Ratio of sensitivity: K31-4-2 / NT", "experimental": "A bag of mixed salts for Murashige-Skoog (MS) medium (manufactured by Wako Pure Chemical Industries, Ltd.) 20 g of sucrose, 3 mg of thiamin hydrochloride, 5 mg of nicotinic acid, and 0.5 mg of pyridoxine hydrochloride were dissolved in distilled water, and filled up to 1 L with distilled water. After pH adjustment to 5.8 to 6.3 with 1 M KOH, 3 g of Gelrite was added to the solution, and dissolved using a microwave. After that, the mixture was autoclaved to prepare a sterile MS medium. A test drug was added to this sterile MS medium so as to make a final concentration of 1.3, 4.1, 12, 37, 110, or 330 nM. Arabidopsis thaliana from a sterilized seed was seeded in the drug-containing MS medium, and cultivated at 22° C. for 12 to 14 days in a continuous light period.\nNote that the drugs used in this Example were bispyribac-sodium, pyrithiobac-sodium, pyriminobac, bensulfuron-methyl, penoxsulam, pyrazosulfuron-ethyl, amidosulfuron, imazosulfuron, nicosulfuron, and propyrisulfuron."}, "[4]": {"test_system": "rice calluses transformed with pSTARA-sGFP", "assay": "Selection of drug-resistant callus in N6D medium, pSTARA-sGFP", "type": "cell-based, Oryza sativa", "conditions": "N6D medium containing 0.25 μM BS", "experimental": "Rice transformed with pCAMBIA1390-KasCYP72A31 was used to examine whether a Kasalath-derived CYP72A31 gene was able to be used as a selection marker for transformation with BS as a selection reagent. According to Example 5, rice (Nipponbare) was transformed with pCAMBIA1390-KasCYP72A31 or pSTARA-sGFP by using an Agrobacterium method.\nRice (Nipponbare) calluses transformed with pCAMBIA1390-KasCYP72A31 were cultured for 4 weeks in an N6D medium containing 0.1 or 0.25 μM BS or an N6D medium containing 50 ppm hygromycin to select drug-resistant calluses. Also, rice calluses transformed with pSTARA-sGFP were selected in a similar manner in an N6D medium containing 0.25 μM BS."}},
  "data": [
    {"smiles": "COc1cc(OC)nc(Oc2cccc(Oc3nc(OC)cc(OC)n3)c2C(=O)O)n1", "note": "[BS, bispyribac sodium]", "values": [
      {"measurement": "BS sensitivity (germinated seeds, emerging of true leaves, fresh weight of above-ground part)", "setting": "[1]", "value": "significantly lower BS sensitivity compared to NT"},
      {"measurement": "BS sensitivity (germinated seeds, emerging of true leaves, fresh weight of above-ground part)", "setting": "[2]", "value": "BS sensitivity equivalent to NT"},
      {"measurement": "Resistance of transformed Arabidopsis thaliana to the drug", "setting": "[3]; K31-4-2, Tables 2 and 3, FIGS. 20 to 24", "value": "exhibited resistance"},
      {"measurement": "Rate of emerging of true leaf (%)", "setting": "[3]; K31-4-2, drug 1.3 nM, day 12 after seeding", "value": 89, "unit": "%"},
      {"measurement": "Rate of emerging of true leaf (%)", "setting": "[3]; K31-4-2, drug 1.3 nM, day 14 after seeding", "value": 100, "unit": "%"},
      {"measurement": "Rate of emerging of true leaf (%)", "setting": "[3]; K31-4-2, drug 4.1 nM, day 12 after seeding", "value": 100, "unit": "%"},
      {"measurement": "Rate of emerging of true leaf (%)", "setting": "[3]; K31-4-2, drug 4.1 nM, day 14 after seeding", "value": 100, "unit": "%"},
      {"measurement": "Rate of emerging of true leaf (%)", "setting": "[3]; K31-4-2, drug 12 nM, day 12 after seeding", "value": 89, "unit": "%"},
      {"measurement": "Rate of emerging of true leaf (%)", "setting": "[3]; K31-4-2, drug 12 nM, day 14 after seeding", "value": 100, "unit": "%"},
      {"measurement": "Rate of emerging of true leaf (%)", "setting": "[3]; K31-4-2, drug 37 nM, day 12 after seeding", "value": 100, "unit": "%"},
      {"measurement": "Rate of emerging of true leaf (%)", "setting": "[3]; K31-4-2, drug 37 nM, day 14 after seeding", "value": 100, "unit": "%"},
      {"measurement": "Rate of emerging of true leaf (%)", "setting": "[3]; K31-4-2, drug 110 nM, day 12 after seeding", "value": 100, "unit": "%"},
      {"measurement": "Rate of emerging of true leaf (%)", "setting": "[3]; K31-4-2, drug 110 nM, day 14 after seeding", "value": 100, "unit": "%"},
      {"measurement": "Rate of emerging of true leaf (%)", "setting": "[3]; K31-4-2, drug 330 nM, day 12 after seeding", "value": 78, "unit": "%"},
      {"measurement": "Rate of emerging of true leaf (%)", "setting": "[3]; K31-4-2, drug 330 nM, day 14 after seeding", "value": 80, "unit": "%"},
      {"measurement": "Ratio of sensitivity", "setting": "[3]; maximum drug concentration for 40% or more emerging of true leaves, day 12", "value": ">28"},
      {"measurement": "Ratio of sensitivity", "setting": "[3]; maximum drug concentration for 80% or more emerging of true leaves, day 14", "value": ">80"},
      {"measurement": "Selection efficiency (ratio of the resulting transformed calluses/all calluses)", "setting": "[4]", "value": 82, "unit": "%"}
    ]}
  ]
}
